According to patent US12263172B2, “Toll-like receptor agonists for use in the treatment of hepatitis b” (priority 2019, dated 2025):

How the values were obtained:
CYP3A4 = CYP3A4 (Homo sapiens, UniProt P08684); assay: CYP3A4 substrate and inhibition; format: in vitro ADME
Description: (§1) Exposure increased more than dose-proportionally at low doses. Variability in exposure was high. • In vitro plasma protein binding was between 79.6% and 94.2% in animals and humans. Volume of distribution after intravenous dosing was high. […] Main metabolic pathways were oxygenation, hydrogenation, dehydrogenation, dealkylation, acetylation, glucuronidation, and/or glutathione conjugation. • In rats, >80% of drug-related material was found in feces, 11% to 20% in bile, and <4% in urine. […] There were no effects on embryofetal development up to 1 mg/kg/dose in rats and 30 mg/kg/dose in rabbits.

[1] = 6-month toxicity study in Cynomolgus monkeys; conditions: cynomolgus monkey, in vivo
Description: as §1

[2] = embryofetal development in rats; format: in vivo
Description: as §1

[3] = in vitro permeability and P-glycoprotein substrate; format: in vitro ADME
Description: as §1

P-glycoprotein = P-glycoprotein (Homo sapiens, UniProt P08183); assay: in vitro permeability and P-glycoprotein substrate; format: in vitro ADME
Description: as §1

monkey TLR7 = target: T1, monkey TLR7 (Macaca fascicularis, UniProt B3Y652); assay: activation of monkey TLR7 (LEC); format: cell-based
T1 sequence (B3Y652 1-1049): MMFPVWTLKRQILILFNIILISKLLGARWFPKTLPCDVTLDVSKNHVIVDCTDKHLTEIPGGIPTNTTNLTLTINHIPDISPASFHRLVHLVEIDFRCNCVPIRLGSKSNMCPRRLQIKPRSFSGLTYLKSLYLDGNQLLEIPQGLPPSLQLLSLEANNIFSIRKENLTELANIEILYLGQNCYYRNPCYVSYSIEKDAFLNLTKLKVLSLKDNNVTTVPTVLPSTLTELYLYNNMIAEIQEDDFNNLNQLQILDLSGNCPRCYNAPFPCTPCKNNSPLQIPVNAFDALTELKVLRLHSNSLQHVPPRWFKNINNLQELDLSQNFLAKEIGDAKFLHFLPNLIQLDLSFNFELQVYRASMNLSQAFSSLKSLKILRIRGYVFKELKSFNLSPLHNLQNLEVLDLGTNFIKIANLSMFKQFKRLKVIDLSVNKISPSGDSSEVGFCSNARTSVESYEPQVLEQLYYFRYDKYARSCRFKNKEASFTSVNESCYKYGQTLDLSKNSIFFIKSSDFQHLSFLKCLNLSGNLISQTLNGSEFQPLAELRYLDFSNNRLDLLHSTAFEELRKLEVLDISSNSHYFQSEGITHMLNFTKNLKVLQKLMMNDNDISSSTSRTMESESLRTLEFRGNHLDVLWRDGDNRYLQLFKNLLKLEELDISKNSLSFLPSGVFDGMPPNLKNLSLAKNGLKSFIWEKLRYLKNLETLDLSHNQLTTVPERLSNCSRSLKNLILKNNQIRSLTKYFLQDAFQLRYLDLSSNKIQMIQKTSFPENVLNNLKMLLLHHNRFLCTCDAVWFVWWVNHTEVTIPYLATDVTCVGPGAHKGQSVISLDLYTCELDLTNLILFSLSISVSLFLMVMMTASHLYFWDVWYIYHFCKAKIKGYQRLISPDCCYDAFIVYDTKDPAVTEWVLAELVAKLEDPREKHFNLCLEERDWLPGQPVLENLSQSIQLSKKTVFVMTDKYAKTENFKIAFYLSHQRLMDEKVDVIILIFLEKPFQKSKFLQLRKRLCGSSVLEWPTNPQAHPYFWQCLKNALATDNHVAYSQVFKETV
Description: as §1

[4] = 14-week rat toxicity study; format: in vivo; conditions: 5 mg/kg biw
Description: as §1

[5] = target: T2, organic ion transporter 2 (OCT2) (Homo sapiens, UniProt O15244); assay: OCT2 inhibition in vitro; format: in vitro ADME
T2 sequence (O15244 1-555): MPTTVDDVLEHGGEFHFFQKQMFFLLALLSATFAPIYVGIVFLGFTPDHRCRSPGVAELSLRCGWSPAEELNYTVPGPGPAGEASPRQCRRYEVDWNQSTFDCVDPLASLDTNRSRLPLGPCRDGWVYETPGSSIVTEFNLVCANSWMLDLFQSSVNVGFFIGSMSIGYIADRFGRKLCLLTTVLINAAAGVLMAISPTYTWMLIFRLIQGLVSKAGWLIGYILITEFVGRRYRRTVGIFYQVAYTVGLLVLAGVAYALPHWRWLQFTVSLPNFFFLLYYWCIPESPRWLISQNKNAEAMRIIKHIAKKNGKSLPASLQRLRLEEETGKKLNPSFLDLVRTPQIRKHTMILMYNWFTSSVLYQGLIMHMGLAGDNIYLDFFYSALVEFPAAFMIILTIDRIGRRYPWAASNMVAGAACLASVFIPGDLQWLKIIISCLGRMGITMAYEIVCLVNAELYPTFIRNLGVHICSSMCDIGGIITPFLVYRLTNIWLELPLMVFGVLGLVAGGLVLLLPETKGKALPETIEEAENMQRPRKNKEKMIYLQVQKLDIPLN
Description: as §1

Chain of CYP3A4 (P08684 whole entry): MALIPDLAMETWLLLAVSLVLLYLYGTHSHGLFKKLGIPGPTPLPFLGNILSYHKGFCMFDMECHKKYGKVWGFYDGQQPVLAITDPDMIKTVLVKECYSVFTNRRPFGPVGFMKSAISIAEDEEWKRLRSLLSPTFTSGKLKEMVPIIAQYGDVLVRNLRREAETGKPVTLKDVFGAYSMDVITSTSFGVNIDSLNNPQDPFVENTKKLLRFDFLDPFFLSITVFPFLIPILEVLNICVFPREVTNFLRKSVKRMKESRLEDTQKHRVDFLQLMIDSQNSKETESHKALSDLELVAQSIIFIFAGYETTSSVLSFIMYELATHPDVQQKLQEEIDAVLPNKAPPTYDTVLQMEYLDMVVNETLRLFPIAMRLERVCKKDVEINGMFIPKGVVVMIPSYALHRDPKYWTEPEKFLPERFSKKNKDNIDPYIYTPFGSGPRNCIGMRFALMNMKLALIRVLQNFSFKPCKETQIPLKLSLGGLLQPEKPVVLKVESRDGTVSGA
Chain of P-glycoprotein (P08183 whole entry): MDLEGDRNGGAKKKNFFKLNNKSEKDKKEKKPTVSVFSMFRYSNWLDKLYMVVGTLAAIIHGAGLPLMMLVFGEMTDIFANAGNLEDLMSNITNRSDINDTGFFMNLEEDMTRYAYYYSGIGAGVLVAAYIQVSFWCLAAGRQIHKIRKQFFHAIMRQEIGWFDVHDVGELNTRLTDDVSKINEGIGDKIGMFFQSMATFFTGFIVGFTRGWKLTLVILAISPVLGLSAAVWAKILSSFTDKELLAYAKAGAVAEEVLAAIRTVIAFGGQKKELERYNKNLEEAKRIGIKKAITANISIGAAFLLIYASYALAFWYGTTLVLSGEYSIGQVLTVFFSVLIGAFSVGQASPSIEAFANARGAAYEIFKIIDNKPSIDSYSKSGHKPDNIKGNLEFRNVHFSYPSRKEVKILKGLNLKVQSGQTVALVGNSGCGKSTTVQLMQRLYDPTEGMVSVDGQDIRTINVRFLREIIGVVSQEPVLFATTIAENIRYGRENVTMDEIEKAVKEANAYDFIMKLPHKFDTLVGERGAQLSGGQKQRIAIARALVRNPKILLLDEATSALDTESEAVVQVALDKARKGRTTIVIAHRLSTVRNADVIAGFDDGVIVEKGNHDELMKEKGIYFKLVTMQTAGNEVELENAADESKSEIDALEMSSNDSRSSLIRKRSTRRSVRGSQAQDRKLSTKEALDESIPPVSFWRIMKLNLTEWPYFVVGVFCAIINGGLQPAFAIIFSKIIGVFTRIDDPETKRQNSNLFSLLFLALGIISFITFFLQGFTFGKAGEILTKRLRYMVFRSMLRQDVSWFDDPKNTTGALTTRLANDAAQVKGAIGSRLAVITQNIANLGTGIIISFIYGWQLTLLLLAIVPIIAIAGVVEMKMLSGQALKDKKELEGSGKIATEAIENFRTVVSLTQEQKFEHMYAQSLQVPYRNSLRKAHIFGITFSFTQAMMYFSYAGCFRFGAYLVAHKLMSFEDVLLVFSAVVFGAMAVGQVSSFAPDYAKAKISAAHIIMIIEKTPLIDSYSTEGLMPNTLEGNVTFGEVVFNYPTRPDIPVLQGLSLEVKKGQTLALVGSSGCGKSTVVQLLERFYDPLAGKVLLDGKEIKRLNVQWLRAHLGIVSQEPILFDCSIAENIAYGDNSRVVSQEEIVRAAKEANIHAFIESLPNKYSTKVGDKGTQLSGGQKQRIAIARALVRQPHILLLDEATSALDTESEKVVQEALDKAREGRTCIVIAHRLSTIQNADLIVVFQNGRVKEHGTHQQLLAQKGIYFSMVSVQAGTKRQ

CCCCOc1nc(N)c2[nH]cc(Cc3ccc(CN4CCCC4)cc3)c2n1 [Compound 4]
CYP3A4 substrate (CYP3A4): substrate
IC50 (CYP3A4): 590 nM
NOAEL at 6 months ([1]; q2w): 4.5 mg/kg
NOAEL at 6 months ([1]; qw): 3 mg/kg
AUC(0-t) ([1]; 3.0 mg/kg qw or 4.5 mg/kg q2w, read-out: AUC24h at NOAEL): 13.2 to 44.8 ng·h/mL
Cmax ([1]; 3.0 mg/kg qw or 4.5 mg/kg q2w, read-out: Cmax at NOAEL): 2.56 to 16.4 ng/mL
post-implantation loss and fetal weights ([2]; pregnant rats, 3 mg/kg biw): Post-implantation loss and fetal weights effects were noted
dose without effects on embryofetal development ([2]; rats): up to 1 mg/kg/dose
in vitro permeability [3]: low
P-glycoprotein substrate (P-glycoprotein): P-glycoprotein substrate
lowest effective concentration (LEC) for activation of monkey TLR7 (monkey TLR7): < 119 nM
brain inflammation [4]: Brain inflammation occurred
IC50 [5]: 4970 nM
